Source: publication PMC3461162 (British Journal of Cancer, 2012)

Assay: Plasma pharmacokinetics, non-compartmental analysis
Format: in vivo, human
Settings: for Dose proportionality of exposure: BID dosing; for AUC(0-t) / AUC / Cmax / Vd/F / half-life / Tmax: human, plasma, oral; for AUC(0-t): AUC0–12, Gmean (range); for Vd/F: Vss/F, Amean (range)
[1] = following BID dosing, 10 mg BID solution
[2] = following BID dosing, 20 mg BID solution
[3] = following BID dosing, 40 mg BID solution
[4] = following BID dosing, 40 mg BID tablet
[5] = following BID dosing, 60 mg BID tablet
[6] = following BID dosing, 90 mg BID tablet
[7] = following BID dosing, 120 mg BID tablet
[8] = 10 mg, single dose, 10 mg solution (n=5)
[9] = 20 mg, single dose, 20 mg solution (n=3)
[10] = 40 mg, single dose, 40 mg solution (n=6)
[11] = 40 mg, single dose, 40 mg tablet (n=7)

Q: Which results are given for `COc1ccc(-c2ccc3c(N4CCOC[C@@H]4C)nc(N4CCOC[C@@H]4C)nc3n2)cc1CO` [AZD8055]?
A: Dose proportionality of exposure (solution formulation (10–40 mg)): proportional increase in exposure; Dose proportionality of exposure (tablet formulation (40–120 mg)): greater than proportional increase with increasing dose; CLss/F, Amean (n) (range) [1]: 439 (4) (352–521) l h^−1; Cmin ss, Gmean (n) (range) [1]: 0.114 (3) (0.057–0.189) ng ml^−1; T c (temporal change, linearity factor), Gmean (n) (range) [1]: 1.03 (4) (0.839–1.48); CLss/F, range only (Amean NC, n=2) [2]: NC (2) (268–426) l h^−1; Cmin ss, range only (Gmean NC, n=1) [2]: NC (1) (0.228–0.228) ng ml^−1; T c (temporal change, linearity factor), range only (Gmean NC, n=2) [2]: NC (2) (1.61–2.07); CLss/F, Amean (n) (range) [3]: 369 (6) (278–492) l h^−1; Cmin ss, Gmean (n) (range) [3]: 0.370 (5) (0.162–0.821) ng ml^−1; T c (temporal change, linearity factor), Gmean (n) (range) [3]: 1.10 (6) (0.539–1.65); CLss/F, Amean (n) (range) [4]: 465 (5) (148–906) l h^−1; Cmin ss, Gmean (n) (range) [4]: 0.959 (5) (0.294–2.71) ng ml^−1; T c (temporal change, linearity factor), Gmean (n) (range) [4]: 0.806 (5) (0.444–1.13); CLss/F, Amean (n) (range) [5]: 483 (6) (92.9–1250) l h^−1; T c (temporal change, linearity factor), Gmean (n) (range) [5]: 1.30 (6) (0.525–2.50); CLss/F, Amean (n) (range) [6]: 856 (4) (457–1630) l h^−1; Cmin ss, Gmean (n) (range) [6]: 0.543 (5) (0.177–3.18) ng ml^−1; T c (temporal change, linearity factor), Gmean (n) (range) [6]: 1.18 (4) (0.831–1.69); CLss/F, Amean (n) (range) [7]: 283 (7) (68.2–494) l h^−1; Cmin ss, Gmean (n) (range) [7]: 3.54 (5) (1.40–41.1) ng ml^−1; T c (temporal change, linearity factor), Gmean (n) (range) [7]: 1.81 (7) (1.09–3.50); AUC(0-t) [8]: 24.1 ng·h/mL; AUC (10 mg, AUC, Gmean (range), single dose, 10 mg solution (n=5)): 24.5 ng·h/mL; AUC (10 mg, AUCss, Gmean (n) (range), following BID dosing, 10 mg BID solution): 23 ng·h/mL; Cmax (10 mg, Cmax ss, Gmean (n) (range), following BID dosing, 10 mg BID solution): 17.3 ng/mL; Cmax (10 mg, Cmax, Gmean (range), single dose, 10 mg solution (n=5)): 16.8 ng/mL; Vd/F [8]: 884 L; half-life (10 mg, t1/2, Amean (range), single dose, 10 mg solution (n=5)): 146 min; half-life (10 mg, t1/2 ss, Amean (n) (range), following BID dosing, 10 mg BID solution): 169 min; Tmax (10 mg, tmax ss, Median (n) (range), following BID dosing, 10 mg BID solution): 30 min; Tmax (10 mg, tmax, Median (range), single dose, 10 mg solution (n=5)): 30 min; AUC(0-t) [9]: 43.3 ng·h/mL; AUC (20 mg, AUC, Gmean (range), single dose, 20 mg solution (n=3)): 43.7 ng·h/mL; Cmax (20 mg, Cmax, Gmean (range), single dose, 20 mg solution (n=3)): 27 ng/mL; Vd/F [9]: 1050 L; half-life (20 mg, t1/2, Amean (range), single dose, 20 mg solution (n=3)): 112 min; Tmax (20 mg, tmax, Median (range), single dose, 20 mg solution (n=3)): 30 min; AUC(0-t) [10]: 99.4 ng·h/mL; AUC(0-t) [11]: 124 ng·h/mL; AUC (40 mg, AUC, Gmean (range), single dose, 40 mg solution (n=6)): 101 ng·h/mL; AUC (40 mg, AUC, Gmean (range), single dose, 40 mg tablet (n=7)): 127 ng·h/mL; AUC (40 mg, AUCss, Gmean (n) (range), following BID dosing, 40 mg BID solution): 111 ng·h/mL; AUC (40 mg, AUCss, Gmean (n) (range), following BID dosing, 40 mg BID tablet): 101 ng·h/mL; Cmax (40 mg, Cmax ss, Gmean (n) (range), following BID dosing, 40 mg BID solution): 61.9 ng/mL; Cmax (40 mg, Cmax ss, Gmean (n) (range), following BID dosing, 40 mg BID tablet): 46.1 ng/mL; Cmax (40 mg, Cmax, Gmean (range), single dose, 40 mg solution (n=6)): 70.9 ng/mL; Cmax (40 mg, Cmax, Gmean (range), single dose, 40 mg tablet (n=7)): 72.3 ng/mL; Vd/F [10]: 840 L; Vd/F [11]: 762 L; half-life (40 mg, t1/2, Amean (range), single dose, 40 mg solution (n=6)): 159 min; half-life (40 mg, t1/2, Amean (range), single dose, 40 mg tablet (n=7)): 137 min; half-life (40 mg, t1/2 ss, Amean (n) (range), following BID dosing, 40 mg BID solution): 128 min; half-life (40 mg, t1/2 ss, Amean (n) (range), following BID dosing, 40 mg BID tablet): 182 min; Tmax (40 mg, tmax ss, Median (n) (range), following BID dosing, 40 mg BID solution): 15 min; Tmax (40 mg, tmax ss, Median (n) (range), following BID dosing, 40 mg BID tablet): 60 min; Tmax (40 mg, tmax, Median (range), single dose, 40 mg solution (n=6)): 22.2 min; Tmax (40 mg, tmax, Median (range), single dose, 40 mg tablet (n=7)): 60 min; AUC(0-t) (60 mg, single dose, 60 mg tablet (n=7)): 131 ng·h/mL; AUC (60 mg, AUC, Gmean (range), single dose, 60 mg tablet (n=7)): 136 ng·h/mL
